Data published in patent US8293780B1, “Anti-cancer agents based on 6-trifluoromethoxybenzimidazole derivatives and method of making” (U.S. Department of Energy, priority 2009, dated 2012).
Counter-ions that a name gives are not always drawn.

test system: DU-145 cells (prostate carcinoma); assay: DU-145 cell growth inhibition, tetrazolium dye XTT viability endpoint; assay type: cell-based; conditions: Homo sapiens, triplicate, five half-logarithmic dilutions, read-out: DU145 TC50
Method: Cell Preparation: DU-145 cells (prostate carcinoma; catalog #HTB-81) were obtained from the ATCC and propagated in EMEM with Earles BSS supplemented with 10% FBS (fetal bovine serum), 2 mM L-glutamine, 100 U/mL penicillin, 100 μg/mL streptomycin, 1 mM sodium pyruvate, and 0.1 mM NEAA (Non-Essential Amino Acids). DU-145 cells were passaged in T-75 flasks prior to use in the assay. On the day preceding the assay, the cells were split 1:2 to assure they were in an exponential growth phase at the time of infection. Total cell and viability quantification was performed using a hemocytometer and Trypan Blue dye exclusion. Cell viability was greater than 95% for the cells to be utilized in the assay. The cells were re-suspended at 1×10^5 cells per mL in tissue culture medium and added to the drug-containing microtiter plates in a volume of 100 μL.
Plate Format: Each plate contained cell control wells (cells only), experimental compound evaluation wells (cells plus compound only), and test compound colorimetric control wells (compound only). Samples were initially tested in triplicate for inhibition of DU-145 cell growth at 10 μM concentration for each compound with a single colorimetric control well. Secondary assay tested the compounds in triplicate using five half-logarithmic dilutions.
Tetrazolium Dye XTT Viability Endpoint: Following incubation at 37° C. in a 5% CO2 incubator, the test plates were stained with the tetrazolium dye XTT (2,3-bis(2-methoxy-4-nitro-5-sulfophenyl)-5-[(phenylamino)carbonyl]-2H-tetrazolium hydroxide). XTT was metabolized by the mitochondrial enzymes of metabolically active cells to a soluble formazan product, allowing rapid quantitative analysis of the inhibition of DU-145 […] by anti-prostate cancer test substances. XTT solution was prepared daily as a stock of 1 mg/mL in RPMI1640. Phenazine methosulfate (PMS) solution was prepared at 0.15 mg/mL in PBS (Phosphate—Buffered Saline) and stored in the dark at −20° C. XTT/PMS stock was prepared immediately before use by adding 40 μL of PMS per ml of XTT solution. Fifty microliters of XTT/PMS was added to each well of the plate and the plate was reincubated for 4 hours at 37° C. Plates were sealed with adhesive plate sealers and shaken gently or inverted several times to mix the soluble formazan product and the plate was read spectrophotometrically at 450/650 nm with a Molecular Devices Vmax plate reader.
IC50 represents the concentration of a drug that is required for 50% inhibition in vitro.

Question: With `FC(F)(F)Oc1ccc2nc(-c3ccco3)[nH]c2c1` as the compound, how does the CC50 read?
Answer: 1.8 µM

Question: Which CC50 does the source give for `FC(F)(F)Oc1ccc2nc(-c3ccccc3)[nH]c2c1` here?
Answer: 0.9 µM

Question: Which CC50 does the source give for `CCc1nc2ccc(OC(F)(F)F)cc2[nH]1` here?
Answer: > 10 µM

Question: `Cc1nc2ccc(OC(F)(F)F)cc2[nH]1` was tested. Which CC50 did it give?
Answer: > 10 µM

Question: Which CC50 does the source give for `CC/C(=C(\c1ccccc1)c1ccc(OCCN(C)C)cc1)c1ccccc1` [Tamoxifen Citrate, reference compound] here?
Answer: 20 µM

Question: `FC(F)(F)Oc1ccc2nc(-c3cccnc3)[nH]c2c1` was tested. Which CC50 did it give?
Answer: 4.6 µM
